Test results published in PMC4303209, “A novel phosphatidylinositol 3-kinase (PI3K) inhibitor directs a potent FOXO-dependent, p53-independent cell cycle arrest phenotype characterized by the differential induction of a subset of FOXO-regulated genes” (Breast Cancer Research : BCR, 2014).

System: MCF-7 breast cancer cells
Test: Microarray gene expression analysis (Agilent whole human genome 4 x 44K; compound vs DMSO, LIMMA log2 fold change)
Type: cell-based
Settings: cell cycle genes

`Oc1cccc(-c2nc(N3CCOCC3)c3oc4ncccc4c3n2)c1` [PI-103] was tested, and the “TRIAP1 log2FC” value (Gene 51499) was -0.86, the “DTL log2FC” value (Gene 51514) was -0.14 and the “SIRT7 log2FC” value (Gene 51547) was 0.32. For the same molecule, the “CINP log2FC” value (Gene 51550) was -0.05, the “GINS2 log2FC” value (Gene 51659) was -0.80 and the “NUP54 log2FC” value (Gene 53371) was 0.41. The “PELO log2FC” value (Gene 53918) was -0.59, the “WNT4 log2FC” value (Gene 54361) was -0.42 and the “ANLN log2FC” value (Gene 54443) was 0.75. The “FBXW5 log2FC” value (Gene 54461) was 0.13, the “FAM64A log2FC” value (Gene 54478) was 0.10 and the “DDX4 log2FC” value (Gene 54514) was -0.13. For the same molecule, the “BTG4 log2FC” value (Gene 54766) was 0.11, the “NDE1 log2FC” value (Gene 54820) was 0.40 and the “NSUN2 log2FC” value (Gene 54888) was -0.48. For the same molecule, the “TTC19 log2FC” value (Gene 54902) was 0.67, the “TXNL4B log2FC” value (Gene 54957) was 0.28 and the “BANP log2FC” value (Gene 54971) was 0.16. The “AURKAIP1 log2FC” value (Gene 54998) was -0.22, the “PHIP log2FC” value (Gene 55023) was 1.07 and the “USP47 log2FC” value (Gene 55031) was 0.61. The “ZWILCH log2FC” value (Gene 55055) was 0.41, the “PIWIL2 log2FC” value (Gene 55124) was 0.06 and the “CEP192 log2FC” value (Gene 55125) was 0.35. For the same molecule, the “CDCA8 log2FC” value (Gene 55143) was -0.04, the “RFWD3 log2FC” value (Gene 55159) was -0.62 and the “CEP55 log2FC” value (Gene 55165) was 0.99. The “CENPQ log2FC” value (Gene 55166) was 0.81, the “RIF1 log2FC” value (Gene 55183) was 0.39 and the “ARL8B log2FC” value (Gene 55207) was 0.45. The “RCBTB1 log2FC” value (Gene 55213) was 0.71, the “CCDC87 log2FC” value (Gene 55231) was 0.15 and the “STEAP3 log2FC” value (Gene 55240) was -0.44. For the same molecule, the “MNS1 log2FC” value (Gene 55329) was 0.91, the “MCM10 log2FC” value (Gene 55388) was -0.91 and the “SMPD3 log2FC” value (Gene 55512) was -0.27. The “TRIM36 log2FC” value (Gene 55521) was 0.64, the “RBM38 log2FC” value (Gene 55544) was -0.58 and the “PRR5 log2FC” value (Gene 55615) was 0.45. The “PRPF40A log2FC” value (Gene 55660) was 1.01, the “CEP72 log2FC” value (Gene 55722) was 0.31 and the “CHFR log2FC” value (Gene 55743) was -0.11. For the same molecule, the “NUP133 log2FC” value (Gene 55746) was 0.25, the “CCAR1 log2FC” value (Gene 55749) was 0.55 and the “CDK5RAP2 log2FC” value (Gene 55755) was 0.51. The “PCID2 log2FC” value (Gene 55795) was 0.32, the “CENPN log2FC” value (Gene 55839) was 0.30 and the “PPP2R2D log2FC” value (Gene 55844) was -0.17. The “HDAC8 log2FC” value (Gene 55869) was -0.36, the “PBK log2FC” value (Gene 55872) was 0.46 and the “BIN3 log2FC” value (Gene 55909) was -0.80. For the same molecule, the “ERBB2IP log2FC” value (Gene 55914) was 1.07, the “RCC2 log2FC” value (Gene 55920) was -0.27 and the “KLHL9 log2FC” value (Gene 55958) was 0.04. The “TEX11 log2FC” value (Gene 56159) was 0.000672, the “TDRD1 log2FC” value (Gene 56165) was 0.04 and the “PARD3 log2FC” value (Gene 56288) was 0.46. The “RPRM log2FC” value (Gene 56475) was -0.24, the “CYP26B1 log2FC” value (Gene 56603) was 0.03 and the “SPIRE1 log2FC” value (Gene 56907) was 0.10. The “SMARCAD1 log2FC” value (Gene 56916) was 0.55, the “PRDM9 log2FC” value (Gene 56979) was 0.0757 and the “KIF15 log2FC” value (Gene 56992) was 1.30. For the same molecule, the “PDXP log2FC” value (Gene 57026) was -0.93, the “PCBP4 log2FC” value (Gene 57060) was -0.27 and the “CASC5 log2FC” value (Gene 57082) was 0.12. The “PCNP log2FC” value (Gene 57092) was 0.60, the “NUP107 log2FC” value (Gene 57122) was 0.63 and the “CHMP1B log2FC” value (Gene 57132) was 0.39. The “PAK7 log2FC” value (Gene 57144) was 0.45, the “CSRP2BP log2FC” value (Gene 57325) was 0.27 and the “TTYH1 log2FC” value (Gene 57348) was -0.09. The “BIRC6 log2FC” value (Gene 57448) was 0.14, the “MTA3 log2FC” value (Gene 57504) was 0.33 and the “HACE1 log2FC” value (Gene 57531) was 0.51. The “TAOK1 log2FC” value (Gene 57551) was 0.40, the “USP37 log2FC” value (Gene 57695) was 0.38 and the “FANCM log2FC” value (Gene 57697) was 0.48. The “CCNB1IP1 log2FC” value (Gene 57820) was 0.84, the “RHOU log2FC” value (Gene 58480) was 1.56 and the “OVOL2 log2FC” value (Gene 58495) was 0.16. The “AVPI1 log2FC” value (Gene 60370) was 0.53, the “RINT1 log2FC” value (Gene 60561) was 0.44 and the “FAM111A log2FC” value (Gene 63901) was 0.33. For the same molecule, the “DMRTC2 log2FC” value (Gene 63946) was -0.00414, the “CLSPN log2FC” value (Gene 63967) was -0.11 and the “TSPYL2 log2FC” value (Gene 64061) was -0.12. For the same molecule, the “DPEP3 log2FC” value (Gene 64180) was 0.19, the “RFWD2 log2FC” value (Gene 64326) was -0.06 and the “CENPH log2FC” value (Gene 64946) was 0.38. The “MRPL41 log2FC” value (Gene 64975) was -0.47, the “INTS3 log2FC” value (Gene 65123) was -0.18 and the “PHACTR4 log2FC” value (Gene 65979) was 0.43. The “BOLL log2FC” value (Gene 66037) was -0.012, the “MIS12 log2FC” value (Gene 79003) was -0.76 and the “CENPM log2FC” value (Gene 79019) was 0.04. For the same molecule, the “NUP37 log2FC” value (Gene 79023) was 0.16, the “ZNF655 log2FC” value (Gene 79027) was 0.68 and the “CENPO log2FC” value (Gene 79172) was -0.71. For the same molecule, the “E2F8 log2FC” value (Gene 79733) was 0.23, the “FBXO31 log2FC” value (Gene 79791) was -0.10 and the “CSPP1 log2FC” value (Gene 79848) was 0.57. The “NEK11 log2FC” value (Gene 79858) was 0.47, the “MAP9 log2FC” value (Gene 79884) was 1.08 and the “NUP85 log2FC” value (Gene 79902) was 0.18. For the same molecule, the “CEP76 log2FC” value (Gene 79959) was 0.32, the “CENPT log2FC” value (Gene 80152) was 0.00794 and the “DBF4B log2FC” value (Gene 80174) was -0.40. For the same molecule, the “CEP290 log2FC” value (Gene 80184) was 0.83, the “CEP63 log2FC” value (Gene 80254) was 0.71 and the “CDK5RAP3 log2FC” value (Gene 80279) was 0.0271. The “CEP70 log2FC” value (Gene 80321) was 0.58, the “TUBB1 log2FC” value (Gene 81027) was -0.33 and the “NDEL1 log2FC” value (Gene 81565) was -0.13. For the same molecule, the “FAM83D log2FC” value (Gene 81610) was -0.15, the “CAB39L log2FC” value (Gene 81617) was 0.08 and the “CCNL2 log2FC” value (Gene 81669) was -0.13. The “CABLES2 log2FC” value (Gene 81928) was -0.71, the “KIF18A log2FC” value (Gene 81930) was 1.18 and the “SESN2 log2FC” value (Gene 83667) was -0.54. The “SETDB2 log2FC” value (Gene 83852) was 1.23, the “GSG2 log2FC” value (Gene 83903) was -0.50 and the “RASSF4 log2FC” value (Gene 83937) was 0.14. The “MND1 log2FC” value (Gene 84057) was 0.59, the “HORMAD1 log2FC” value (Gene 84072) was 0.40 and the “USP44 log2FC” value (Gene 84101) was 0.0155. The “CEP78 log2FC” value (Gene 84131) was 0.36, the “GINS4 log2FC” value (Gene 84296) was -0.47 and the “RAB11FIP4 log2FC” value (Gene 84440) was 0.56. The “LZTS2 log2FC” value (Gene 84445) was 1.13, the “BRSK1 log2FC” value (Gene 84446) was 0.0146 and the “SPIRE2 log2FC” value (Gene 84501) was 0.56. For the same molecule, the “PARD6B log2FC” value (Gene 84612) was 0.88, the “PPP1R9B log2FC” value (Gene 84687) was -0.13 and the “SPATA22 log2FC” value (Gene 84690) was 0.0637. The “BEX2 log2FC” value (Gene 84707) was 0.83, the “PSRC1 log2FC” value (Gene 84722) was 0.36 and the “KLHL22 log2FC” value (Gene 84861) was 0.21. The “TBRG1 log2FC” value (Gene 84897) was 0.08, the “MASTL log2FC” value (Gene 84930) was 0.43 and the “LSM10 log2FC” value (Gene 84967) was -1.02. The “CCNB3 log2FC” value (Gene 85417) was 0.31, the “LRRCC1 log2FC” value (Gene 85444) was 0.61 and the “DIXDC1 log2FC” value (Gene 85458) was 0.018. The “PNPT1 log2FC” value (Gene 87178) was -0.10, the “LMLN log2FC” value (Gene 89782) was 0.82 and the “KLHL13 log2FC” value (Gene 90293) was 0.07. The “GADD45GIP1 log2FC” value (Gene 90480) was -0.25, the “SLFN11 log2FC” value (Gene 91607) was -0.61 and the “CENPL log2FC” value (Gene 91687) was -0.11. The “CABLES1 log2FC” value (Gene 91768) was 1.68, the “SYCE1 log2FC” value (Gene 93426) was -0.08 and the “ACTR8 log2FC” value (Gene 93973) was 0.12. For the same molecule, the “TP53INP1 log2FC” value (Gene 94241) was 0.89, the “CDCA5 log2FC” value (Gene 113130) was 0.0109 and the “TUBGCP5 log2FC” value (Gene 114791) was 0.12.
